ChEMBL document CHEMBL1201862, “PubChem BioAssay data set” (2004)
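Cells were grown in 96-well plates and exposed to each compound for 48 hours at five concentrations; endpoints were interpolated linearly between bracketing concentrations, or set to the highest concentration if not reached. The concentration for 50% growth inhibition is given as GI50.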 Activity calls are given as the source filed them. Cut-off read from the data, not from the text of the source: active = GI50 up to about 1.1 µM and inactive = higher.

Assays:
Test in all cases: NCI tumour cell line growth inhibition, 48 h
UACC-62 = system: UACC-62
Malme-3M = system: Malme-3M
IGROV-1 = system: IGROV-1
NCI-H460 = system: NCI-H460
UO-31 = system: UO-31
HOP-92 = system: HOP-92
OVCAR-8 = system: OVCAR-8
RPMI-8226 = system: RPMI-8226
OVCAR-5 = system: OVCAR-5
NCI-H226 = system: NCI-H226
MCF7 = system: MCF7
786-0 = system: 786-0
MDA-N = system: MDA-N
Hs-578T = system: Hs-578T
RXF 393 = system: RXF 393
SNB-75 = system: SNB-75
SNB-19 = system: SNB-19
A549 = system: A549
U-251 = system: U-251
SW-620 = system: SW-620
CCRF-CEM = system: CCRF-CEM
HCC 2998 = system: HCC 2998
EKVX = system: EKVX
SR = system: SR
SK-OV-3 = system: SK-OV-3
DU-145 = system: DU-145
SK-MEL-5 = system: SK-MEL-5
K562 = system: K562
SF-268 = system: SF-268
COLO 205 = system: COLO 205
HT-29 = system: HT-29
SK-MEL-2 = system: SK-MEL-2
NCI/ADR-RES = system: NCI/ADR-RES
SF-539 = system: SF-539
A498 = system: A498
T47D = system: T47D
NCI-H23 = system: NCI-H23
SF-295 = system: SF-295
NCI-H522 = system: NCI-H522
HCT-116 = system: HCT-116
M14 = system: M14
SN12C = system: SN12C
PC-3 = system: PC-3
KM12 = system: KM12
MDA-MB-231 = system: MDA-MB-231
CAKI-1 = system: CAKI-1
ACHN = system: ACHN
TK-10 = system: TK-10
OVCAR-3 = system: OVCAR-3
OVCAR-4 = system: OVCAR-4
LOX IMVI = system: LOX IMVI
UACC-257 = system: UACC-257
MOLT-4 = system: MOLT-4
HCT-15 = system: HCT-15
HOP-62 = system: HOP-62
HL-60 = system: HL-60
SK-MEL-28 = system: SK-MEL-28
MDA-MB-435 = system: MDA-MB-435
BT-549 = system: BT-549

Cc1c2oc3c(C)cc(F)c(C(=O)NC4C(=O)NC(C(C)C)C(=O)N5CCCC5C(=O)N(C)CC(=O)N(C)C(C(C)C)C(=O)OC4C)c3nc-2c(C(=O)NC2C(=O)NC(C(C)C)C(=O)N3CCCC3C(=O)N(C)CC(=O)N(C)C(C(C)C)C(=O)OC2C)c(N)c1=O (stereo not drawn)
GI50 (UACC-62): 61.7 nM (active)
GI50 (Malme-3M): 1.49 nM (active)
GI50 (IGROV-1): 6.18 nM (active)
GI50 (NCI-H460): 1.79 nM (active)
GI50 (UO-31): 521 nM (active)
GI50 (HOP-92): 154 nM (active)
GI50 (OVCAR-8): 221 nM (active)
GI50 (RPMI-8226): < 1 nM (active)
GI50 (OVCAR-5): 214 nM (active)
GI50 (NCI-H226): 23.4 nM (active)
GI50 (MCF7): < 1 nM (active)
GI50 (786-0): 5.12 nM (active)
GI50 (MDA-N): 2.4 nM (active)
GI50 (Hs-578T): 298 nM (active)
GI50 (RXF 393): 106 nM (active)
GI50 (SNB-75): 163 nM (active)
GI50 (SNB-19): 7.71 nM (active)
GI50 (A549): 14.8 nM (active)
GI50 (U-251): 5.88 nM (active)
GI50 (SW-620): 1.14 nM (active)
GI50 (CCRF-CEM): < 1 nM (active)
GI50 (HCC 2998): 109 nM (active)
GI50 (EKVX): 1750 nM (inactive)
GI50 (SR): < 1 nM (active)
GI50 (SK-OV-3): 160 nM (active)
GI50 (DU-145): 115 nM (active)
GI50 (SK-MEL-5): 14.2 nM (active)
GI50 (K562): < 1 nM (active)
GI50 (SF-268): < 1 nM (active)
GI50 (COLO 205): 26.7 nM (active)
GI50 (HT-29): 5.86 nM (active)
GI50 (SK-MEL-2): 10 nM (active)
GI50 (NCI/ADR-RES): 4650 nM (inactive)
GI50 (SF-539): 68.1 nM (active)
GI50 (A498): 161 nM (active)
GI50 (T47D): 101 nM (active)
GI50 (NCI-H23): 105 nM (active)
GI50 (SF-295): 7.08 nM (active)
GI50 (NCI-H522): 1.88 nM (active)
GI50 (HCT-116): 10 nM (active)
GI50 (M14): 82.6 nM (active)
GI50 (SN12C): 30.3 nM (active)
GI50 (PC-3): 17.9 nM (active)
GI50 (KM12): 4.75 nM (active)
GI50 (MDA-MB-231): 647 nM (active)
GI50 (CAKI-1): 2450 nM (inactive)
GI50 (ACHN): 83.2 nM (active)
GI50 (TK-10): 224 nM (active)
GI50 (OVCAR-3): 33.6 nM (active)
GI50 (OVCAR-4): 711 nM (active)
GI50 (LOX IMVI): 2.55 nM (active)
GI50 (UACC-257): 3.95 nM (active)
GI50 (MOLT-4): < 1 nM (active)
GI50 (HCT-15): 80.5 nM
GI50 (HOP-62): 107 nM (active)
GI50 (HL-60): 1.31 nM (active)
GI50 (SK-MEL-28): 26.3 nM (active)
GI50 (MDA-MB-435): 7.57 nM (active)

CC(=O)NC1CC(C(C)(C)NC(C)=O)CC=C1C (stereo not drawn)
GI50 (UACC-62): > 100000 nM (inactive)
GI50 (IGROV-1): > 100000 nM (inactive)
GI50 (NCI-H460): > 100000 nM (inactive)
GI50 (UO-31): > 100000 nM (inactive)
GI50 (HOP-92): > 100000 nM (inactive)
GI50 (OVCAR-8): > 100000 nM (inactive)
GI50 (OVCAR-5): > 100000 nM (inactive)
GI50 (MCF7): > 100000 nM (inactive)
GI50 (786-0): > 100000 nM (inactive)
GI50 (MDA-N): > 100000 nM (inactive)
GI50 (SNB-75): > 100000 nM (inactive)
GI50 (SNB-19): > 100000 nM (inactive)
GI50 (A549): > 100000 nM (inactive)
GI50 (U-251): > 100000 nM (inactive)
GI50 (SW-620): > 100000 nM (inactive)
GI50 (CCRF-CEM): > 100000 nM (inactive)
GI50 (HCC 2998): > 100000 nM (inactive)
GI50 (EKVX): > 100000 nM (inactive)
GI50 (SR): > 100000 nM (inactive)
GI50 (SK-OV-3): > 100000 nM (inactive)
GI50 (DU-145): > 100000 nM (inactive)
GI50 (SK-MEL-5): > 100000 nM (inactive)
GI50 (K562): > 100000 nM (inactive)
GI50 (SF-268): > 100000 nM (inactive)
GI50 (COLO 205): > 100000 nM (inactive)
GI50 (HT-29): > 100000 nM (inactive)
GI50 (NCI/ADR-RES): > 100000 nM (inactive)
GI50 (SF-539): > 100000 nM (inactive)
GI50 (T47D): > 100000 nM (inactive)
GI50 (NCI-H23): > 100000 nM (inactive)
GI50 (SF-295): > 100000 nM (inactive)
GI50 (NCI-H522): > 100000 nM (inactive)
GI50 (HCT-116): > 100000 nM (inactive)
GI50 (M14): > 100000 nM (inactive)
GI50 (SN12C): > 100000 nM (inactive)
GI50 (PC-3): > 100000 nM (inactive)
GI50 (KM12): > 100000 nM (inactive)
GI50 (MDA-MB-231): > 100000 nM (inactive)
GI50 (TK-10): > 100000 nM (inactive)
GI50 (OVCAR-3): > 100000 nM (inactive)
GI50 (OVCAR-4): > 100000 nM (inactive)
GI50 (LOX IMVI): > 100000 nM (inactive)
GI50 (UACC-257): > 100000 nM (inactive)
GI50 (MOLT-4): > 100000 nM (inactive)
GI50 (HCT-15): > 100000 nM
GI50 (HOP-62): > 100000 nM (inactive)
GI50 (HL-60): > 100000 nM (inactive)
GI50 (BT-549): > 100000 nM (inactive)
GI50 (SK-MEL-28): > 100000 nM (inactive)
GI50 (MDA-MB-435): > 100000 nM (inactive)
